From patent US20100137313A1 (ASTRAZENECA AB, priority 2008, published 2010)

Molecular target: S. pneumoniae Topoisomerase IV ATPase (ParE) (Streptococcus pneumoniae serotype 4, UniProt Q59961)
Assay: S. pneumoniae Topoisomerase IV ATPase inhibition
Format: biochemical
Details: values marked * are an average of two or more data points, read-out: % Inh (13 μM) of S. pneumoniae Topoisomerase IV ATPase
How it was run: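 S. pneumoniae ParE (1.25 nM) ATPase with 160 μM ATP and 5 μg/ml sheared DNA in pH 8.0 Tris, Mg2+, DTT, Brij-35; phosphate detected by malachite green/molybdate at 650 nm. Normalised to 2% DMSO (0%) and 20 μM EDTA (100%); IC50 from 10 concentrations.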

Sequence of S. pneumoniae Topoisomerase IV ATPase (ParE) (Q59961 whole entry): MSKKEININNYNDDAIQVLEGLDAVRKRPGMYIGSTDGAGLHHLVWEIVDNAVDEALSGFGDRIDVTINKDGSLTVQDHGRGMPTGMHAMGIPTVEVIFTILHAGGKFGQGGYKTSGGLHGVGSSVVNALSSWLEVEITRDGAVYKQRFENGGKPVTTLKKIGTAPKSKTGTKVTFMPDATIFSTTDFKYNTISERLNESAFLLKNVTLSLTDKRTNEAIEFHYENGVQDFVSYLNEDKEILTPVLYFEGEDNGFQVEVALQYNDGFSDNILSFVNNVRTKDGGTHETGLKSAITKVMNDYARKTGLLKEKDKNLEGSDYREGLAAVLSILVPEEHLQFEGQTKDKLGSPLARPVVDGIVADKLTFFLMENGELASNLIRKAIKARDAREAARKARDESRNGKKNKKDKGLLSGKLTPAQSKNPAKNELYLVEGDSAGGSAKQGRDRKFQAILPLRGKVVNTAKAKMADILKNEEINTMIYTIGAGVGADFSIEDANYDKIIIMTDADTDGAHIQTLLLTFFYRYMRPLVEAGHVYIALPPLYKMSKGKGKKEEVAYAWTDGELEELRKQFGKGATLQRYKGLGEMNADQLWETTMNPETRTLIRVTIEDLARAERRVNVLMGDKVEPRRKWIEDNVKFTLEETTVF

Compound	inhibition at 13 µM [%]
Cc1cc(F)cc(Nc2ncc(-c3cncc(C(=O)O)c3)c(-n3nc(C(F)(F)F)cc3C)n2)c1 [Example 771, 5-{2-[(3-fluoro-5-methylphenyl)-amino]-4-[5-methyl-3-(trifluoromethyl)-1H-pyrazol-1-yl]pyrimidin-5-yl}pyridine-3-carboxylic acid]	100
Cc1ccc(F)c(Nc2ncc(-c3cncc(C(=O)O)c3)c(-n3ccc(C(F)(F)F)n3)n2)c1 [Example 772, 5-{2-[(2-fluoro-5-methylphenyl)-amino]-4-[3-(trifluoromethyl)-1H-pyrazol-1-yl]pyrimidin-5-yl}pyridine-3-carboxylic acid]	81
Cc1ccc(F)c(Nc2ncc(-c3cncc(C(=O)O)c3)c(-n3nc(C(F)(F)F)cc3C)n2)c1 [Example 773, 5-{2-[(2-fluoro-5-methylphenyl)-amino]-4-[5-methyl-3-(trifluoromethyl)-1H-pyrazol-1-yl]pyrimidin-5-yl}pyridine-3-carboxylic acid]	55
COc1cc(Cl)cc(Nc2ncc(-c3cncc(C(=O)O)c3)c(-n3ccc(C(F)(F)F)n3)n2)c1 [Example 774, 5-{2-[(3-chloro-5-methoxyphenyl)-amino]-4-[3-(trifluoromethyl)-1H-pyrazol-1-yl]pyrimidin-5-yl}pyridine-3-carboxylic acid]	100
COc1cc(Cl)cc(Nc2ncc(-c3cncc(C(=O)O)c3)c(-n3nc(C(F)(F)F)cc3C)n2)c1 [Example 775, 5-{2-[(3-chloro-5-methoxyphenyl)-amino]-4-[5-methyl-3-(trifluoromethyl)-1H-pyrazol-1-yl]pyrimidin-5-yl}pyridine-3-carboxylic acid]	100
COc1cc(C)cc(Nc2ncc(-c3cncc(C(=O)O)c3)c(-n3ccc(C(F)(F)F)n3)n2)c1 [Example 776, 5-{2-[(3-methoxy-5-methylphenyl)amino]-4-[3-(trifluoromethyl)-1H-pyrazol-1-yl]pyrimidin-5-yl}pyridine-3-carboxylic acid]	100
COc1cc(C)cc(Nc2ncc(-c3cncc(C(=O)O)c3)c(-n3nc(C(F)(F)F)cc3C)n2)c1 [Example 777, 5-{2-[(3-methoxy-5-methylphenyl)amino]-4-[5-methyl-3-(trifluoromethyl)-1H-pyrazol-1-yl]pyrimidin-5-yl}pyridine-3-carboxylic acid]	100
COc1ncc(-c2cnc(Nc3cc(C)cc(C#N)c3)nc2-n2ccc(C(F)(F)F)n2)cc1C(=O)O [Example 780, 5-{2-[(3-cyano-5-methylphenyl)amino]-4-[3-(trifluoromethyl)-1H-pyrazol-1-yl]pyrimidin-5-yl}-2-methoxypyridine-3-carboxylic acid]	100
COc1ncc(-c2cnc(Nc3cc(C)cc(C#N)c3)nc2-n2nc(C(F)(F)F)cc2C)cc1C(=O)O [Example 781, 5-{2-[(3-cyano-5-methylphenyl)amino]-4-[5-methyl-3-(trifluoromethyl)-1H-pyrazol-1-yl]pyrimidin-5-yl}-2-methoxypyridine-3-carboxylic acid]	99
Cc1cc(C#N)cc(Nc2ncc(-c3cncc(C(=O)O)c3)c(-n3ccc(C(F)(F)F)n3)n2)c1 [Example 784, 5-{2-[(3-cyano-5-methylphenyl)amino]-4-[3-(trifluoromethyl)-1H-pyrazol-1-yl]pyrimidin-5-yl}pyridine-3-carboxylic acid]	70
Cc1cc(C#N)cc(Nc2ncc(-c3cncc(C(=O)O)c3)c(-n3nc(C(F)(F)F)cc3C)n2)c1 [Example 785, 5-{2-[(3-cyano-5-methylphenyl)amino]-4-[5-methyl-3-(trifluoromethyl)-1H-pyrazol-1-yl]pyrimidin-5-yl}pyridine-3-carboxylic acid]	100
